From US8735414B2 (priority 2009, dated 2014) come the findings set out here.

The test system of data set [1] is bicistronic HCV replicon (replicon RNA, GenBank Accession No. AJ242654). Put plainly: HCV Replicon Assay. The settings on record: Hepatitis C virus, 72 h, read-out: Replicon IC50. Type of data set: cell-based. A general note: A replicon is a self-replicating genome or part of one, used to study replication in cells.

The molecule `C[C@H](NS(=O)(=O)c1ccc(-c2c(C#N)c3ccc(OC(F)F)cc3n2C2CCCC2)nc1)C(F)(F)F` [compound 589, 6-[3-cyano-1-cyclopentyl-6-(difluoromethoxy)-1H-indol-2-yl]-N-[(2S)-1,1,1-trifluoropropan-2-yl]pyridine-3-sulfonamide] yielded a melting point of 188 to 194 °C. The IC50 in data set [1] was less than 500 nM.
Consider `C[C@H](NS(=O)(=O)c1ccc(-c2c(C#N)c3ccc(CC(F)F)cc3n2C2CCC2)nc1)C1CC1` [compound 590, 6-[3-cyano-1-cyclobutyl-6-(2,2-difluoroethyl)-1H-indol-2-yl]-N-[(1S)-1-cyclopropylethyl]pyridine-3-sulfonamide], for which the melting point was in the range of 146 to 155 °C. Besides, the 50% inhibitory concentration (IC50) in data set [1] was less than 500 nM.
`C[C@H](NS(=O)(=O)c1cnc(-c2c(C#N)c3ccc(CC(F)F)cc3n2C2CCC2)nc1)C1CC1` [compound 592, 2-[3-cyano-1-cyclobutyl-6-(2,2-difluoroethyl)-1H-indol-2-yl]-N-[(1S)-1-cyclopropylethyl]pyrimidine-5-sulfonamide] came in with a melting point of 168 to 175 °C. Moreover, the IC50 in data set [1] was less than 500 nM.
In the case of `N#Cc1c(-c2ccc(S(=O)(=O)NC(CF)CF)cn2)n(C2CCCC2)c2cc(CC(F)F)ccc12` [compound 593, 6-[3-cyano-1-cyclopentyl-6-(2,2-difluoroethyl)-1H-indol-2-yl]-N-(1,3-difluoropropan-2-yl)pyridine-3-sulfonamide], the melting point lay in the range of 178 to 184 °C. For the same molecule, the IC50 in data set [1] was less than 500 nM.
In the same order, the values of `C[C@H](NS(=O)(=O)c1ccc(-c2c(C#N)c3ccc(CC(F)F)cc3n2C2CCCC2)nc1)C(F)(F)F` [compound 595, 6-[3-cyano-1-cyclopentyl-6-(2,2-difluoroethyl)-1H-indol-2-yl]-N-[(2S)-1,1,1-trifluoropropan-2-yl]pyridine-3-sulfonamide] are 181 to 189 °C and less than 500 nM.
For `CC(C)(NS(=O)(=O)c1ccc(-c2c(C#N)c3ccc(CC(F)F)cc3n2C2CCCC2)nc1)C(F)(F)F` [compound 596, 6-[3-cyano-1-cyclopentyl-6-(2,2-difluoroethyl)-1H-indol-2-yl]-N-(1,1,1-trifluoro-2-methylpropan-2-yl)pyridine-3-sulfonamide], the melting point lay in the range of 194 to 199 °C. Also, in data set [1], the IC50 was less than 500 nM.
In turn, `C[C@H](NS(=O)(=O)c1cnc(-c2c(C#N)c3ccc(CC(F)F)cc3n2C2CCCC2)nc1)C1CC1` [compound 597, 2-[3-cyano-1-cyclopentyl-6-(2,2-difluoroethyl)-1H-indol-2-yl]-N-[(1S)-1-cyclopropylethyl]pyrimidine-5-sulfonamide] came in with a melting point of 181 to 189 °C. Further, in data set [1], the concentration for half-maximal inhibition (IC50) is less than 500 nM.
The molecule `CC(C)NS(=O)(=O)c1cnc(-c2c(C#N)c3ccc(CC(F)F)cc3n2C2CCCC2)nc1` [compound 598, 2-[3-cyano-1-cyclopentyl-6-(2,2-difluoroethyl)-1H-indol-2-yl]-N-(propan-2-yl)pyrimidine-5-sulfonamide] returned a melting point of 204 to 218 °C. Also, the concentration for half-maximal inhibition (IC50) in data set [1] was less than 500 nM.
`N#Cc1c(-c2ncc(S(=O)(=O)NC(CF)CF)cn2)n(C2CCCC2)c2cc(CC(F)F)ccc12` [compound 599, 2-[3-cyano-1-cyclopentyl-6-(2,2-difluoroethyl)-1H-indol-2-yl]-N-(1,3-difluoropropan-2-yl)pyrimidine-5-sulfonamide] came in with a melting point of 174 to 210 °C. Moreover, the IC50 in data set [1] was less than 500 nM.
On to `C[C@H](NS(=O)(=O)c1cnc(-c2c(C#N)c3ccc(CC(F)F)cc3n2C2CCCC2)nc1)C(F)(F)F` [compound 600, 2-[3-cyano-1-cyclopentyl-6-(2,2-difluoroethyl)-1H-indol-2-yl]-N-[(2S)-1,1,1-trifluoropropan-2-yl]pyrimidine-5-sulfonamide], for which the melting point was 240 to 246 °C. Further, in data set [1], the 50% inhibitory concentration (IC50) is less than 500 nM.
On the same counts, the results for `C[C@H](NS(=O)(=O)c1ccc(-c2c(C#N)c3cc(F)ccc3n2-c2ncccn2)nc1)C(F)(F)F` [compound 601, 6-[3-cyano-5-fluoro-1-(pyrimidin-2-yl)-1H-indol-2-yl]-N-[(2S)-1,1,1-trifluoropropan-2-yl]pyridine-3-sulfonamide] are 201 to 203 °C and less than 500 nM.
As to `CC(C)(NS(=O)(=O)c1ccc(-c2c(C#N)c3cc(F)ccc3n2-c2ncccn2)nc1)C(F)(F)F` [compound 602, 6-[3-cyano-5-fluoro-1-(pyrimidin-2-yl)-1H-indol-2-yl]-N-(1,1,1-trifluoro-2-methylpropan-2-yl)pyridine-3-sulfonamide], the melting point lay in the range of 231 to 234 °C. Further, the IC50 in data set [1] was in the range of 500 to 2000 nM.
`CC(C)NS(=O)(=O)c1cnc(-c2c(C#N)c3cc(F)ccc3n2C2CCCC2)nc1` [compound 603, 2-(3-cyano-1-cyclopentyl-5-fluoro-1H-indol-2-yl)-N-(propan-2-yl)pyrimidine-5-sulfonamide] had a melting point of 217 to 222 °C. Further, in data set [1], the IC50 is less than 500 nM.
`CC(C)n1c(-c2ccc(S(=O)(=O)N[C@@H](C)C3CC3)cn2)c(C#N)c2cc(F)ccc21` [compound 604, 6-[3-cyano-5-fluoro-1-(propan-2-yl)-1H-indol-2-yl]-N-[(1S)-1-cyclopropylethyl]pyridine-3-sulfonamide] returned a melting point of 138 to 143 °C. The 50% inhibitory concentration (IC50) in data set [1] was less than 500 nM.
Molecule `Cc1ccc2c(C#N)c(-c3ncc(S(=O)(=O)N[C@@H](C)C(F)(F)F)cn3)n(C3CCCCC3)c2c1` [compound 605, 2-(3-cyano-1-cyclohexyl-6-methyl-1H-indol-2-yl)-N-[(2S)-1,1,1-trifluoropropan-2-yl]pyrimidine-5-sulfonamide] registered a melting point of 257 to 260 °C. Further, in data set [1], the half-inhibitory concentration (IC50) is less than 500 nM.
For the molecule `Cc1ccc2c(c1)c(C#N)c(-c1ccc(S(=O)(=O)N[C@@H](C)C3CC3)cn1)n2C1CCCCC1` [compound 606, 6-(3-cyano-1-cyclohexyl-5-methyl-1H-indol-2-yl)-N-[(1S)-1-cyclopropylethyl]pyridine-3-sulfonamide], the melting point was in the range of 169 to 174 °C. Besides, the IC50 in data set [1] is less than 500 nM.
`Cc1ccc2c(c1)c(C#N)c(-c1ccc(S(=O)(=O)NC(C)(C)C(F)(F)F)cn1)n2C1CCCC1` [compound 607, 6-(3-cyano-1-cyclopentyl-5-methyl-1H-indol-2-yl)-N-(1,1,1-trifluoro-2-methylpropan-2-yl)pyridine-3-sulfonamide] registered a melting point of 176 to 181 °C. Further, in data set [1], the IC50 was less than 500 nM.
On the same counts, the results for `Cc1cc2c(cc1F)c(C#N)c(-c1ccc(S(=O)(=O)N[C@H](C)C(F)(F)F)cn1)n2C1CCC1` [compound 609, 6-(3-cyano-1-cyclobutyl-5-fluoro-6-methyl-1H-indol-2-yl)-N-[(2R)-1,1,1-trifluoropropan-2-yl]pyridine-3-sulfonamide] are 211 to 214 °C and less than 500 nM.
For the molecule `N#Cc1c(-c2ncc(S(=O)(=O)NC(CF)CF)cn2)n(-c2ccccc2)c2cc(OC(F)F)ccc12` [compound 610, 2-[3-cyano-6-(difluoromethoxy)-1-phenyl-1H-indol-2-yl]-N-(1,3-difluoropropan-2-yl)pyrimidine-5-sulfonamide], the melting point lay within 206 to 208 °C. In addition, in data set [1], the IC50 was less than 500 nM.
On the same counts, the results for `C[C@H](NS(=O)(=O)c1cnc(-c2c(C#N)c3ccc(OC(F)F)cc3n2-c2ccccc2)nc1)C(F)(F)F` [compound 611, 2-[3-cyano-6-(difluoromethoxy)-1-phenyl-1H-indol-2-yl]-N-[(2S)-1,1,1-trifluoropropan-2-yl]pyrimidine-5-sulfonamide] are 216 to 218 °C and less than 500 nM.
As to `CC(C)(NS(=O)(=O)c1ccc(-c2c(C#N)c3ccc(OC(F)F)cc3n2-c2ccccc2)nc1)C(F)(F)F` [compound 612, 6-[3-cyano-6-(difluoromethoxy)-1-phenyl-1H-indol-2-yl]-N-(1,1,1-trifluoro-2-methylpropan-2-yl)pyridine-3-sulfonamide], the melting point fell in the range of 218 to 220 °C. For the same molecule, in data set [1], the half-inhibitory concentration (IC50) was less than 500 nM.
The molecule `Cc1cc2c(cc1F)c(C#N)c(-c1ccc(S(=O)(=O)NC3(C(F)(F)F)CC3)cn1)n2C1CCC1` [compound 613, 6-(3-cyano-1-cyclobutyl-5-fluoro-6-methyl-1H-indol-2-yl)-N-[1-(trifluoromethyl)cyclopropyl]pyridine-3-sulfonamide] had a melting point of 223 to 232 °C. Moreover, the 50% inhibitory concentration (IC50) in data set [1] is less than 500 nM.
Regarding `Cc1ccc2c(c1F)c(C#N)c(-c1ccc(S(=O)(=O)NC(C)(C)C(F)(F)F)cn1)n2C1CCCC1` [compound 614, 6-(3-cyano-1-cyclopentyl-4-fluoro-5-methyl-1H-indol-2-yl)-N-(1,1,1-trifluoro-2-methylpropan-2-yl)pyridine-3-sulfonamide], the melting point is 200 to 205 °C. Besides, the 50% inhibitory concentration (IC50) in data set [1] was 500 to 2000 nM.
`Cc1ccc2c(c1F)c(C#N)c(-c1ccc(S(=O)(=O)N[C@@H](C)C(F)(F)F)cn1)n2C1CCCC1` [compound 615, 6-(3-cyano-1-cyclopentyl-4-fluoro-5-methyl-1H-indol-2-yl)-N-[(2S)-1,1,1-trifluoropropan-2-yl]pyridine-3-sulfonamide] returned a melting point of 186 to 197 °C. In data set [1], the IC50 was less than 500 nM.
Molecule `C[C@H](NS(=O)(=O)c1cnc(-c2c(C#N)c3ccc(CC(F)F)cc3n2CC2CC2)nc1)C1CC1` [compound 619, 2-[3-cyano-1-(cyclopropylmethyl)-6-(2,2-difluoroethyl)-1H-indol-2-yl]-N-[(1S)-1-cyclopropylethyl]pyrimidine-5-sulfonamide] yielded a melting point of 144 to 150 °C. Also, the IC50 in data set [1] was less than 500 nM.
For `N#Cc1c(-c2ncc(S(=O)(=O)NC(CF)CF)cn2)n(CC2CC2)c2cc(CC(F)F)ccc12` [compound 621, 2-[3-cyano-1-(cyclopropylmethyl)-6-(2,2-difluoroethyl)-1H-indol-2-yl]-N-(1,3-difluoropropan-2-yl)pyrimidine-5-sulfonamide], the melting point fell in the range of 180 to 188 °C. Besides, the concentration for half-maximal inhibition (IC50) in data set [1] was less than 500 nM.

In general, melting point refers to the temperature of the solid-liquid transition. A word on the IC50: it is the midpoint of a concentration-inhibition curve.
